Data: patent publication US10525148B2, “Systems and methods for preclinical models of metastases” (The Translational Genomics Research Institute, priority 2014, dated 2020)

Legend:
[1] = tested on: PDX from CNS metastasis (spine) of lung adenocarcinoma; experiment: Tumor volume of patient-derived xenograft (lung adenocarcinoma spine metastasis) in NSG mice under treatment (FIG. 7, FIG. 8); type: in vivo; conditions: for tumor growth (tumor volume) during treatment: PDX in NSG mice, daily oral gavage for 18 days, SAHA 100 mg/kg, PD0325901 20 mg/kg, vs vehicle
From the text: (§1) Immediately after surgical removal, fresh tissue was collected for heterotopic (flank) injection into NSG mice (NOD scid gamma mice—or mice that are on a NOD/ShiLtJ background with severe combined immune deficiency mutation and the IL2 receptor gamma chain deficiency). Excised patient tissue was placed in a culture dish with medium and minced into small pieces, such that minced tissue suspensions could be drawn through a 16-gauge needle. Minced tissues were placed in a conical tube, media was withdrawn, and matrigel was added to the wet tissue in a 1:1 volume ratio. Approximately 200 μl of the matrigel-tissue mixture was injected subcutaneously into the flanks of two to four mice, and tumors were allowed to develop until the tumors achieved a length of 1.0 to 2.0 cm in the longest dimension. Mice were then sacrificed by CO2 asphyxiation, and their flank tumors were immediately excised. Portions of each excised flank tumor were archived as frozen tissue and as paraffin-embedded tissue following formalin fixation. The remainder of each tumor was dispersed in DMEM, processed as described above and passed by injection into the flank of another NSG mouse.
In view of these changes in the patient's molecular profile, a treatment model was created. […] For example, in view of the G12C mutation in the KRAS gene and the additional amplification this same gene found in the subject's exome, a MEK inhibitor (i.e., a pharmaceutical that targets the mitogen-activated kinase kinase enzymes MEK1 and MEK2) was selected. In this experiment, the MEK inhibitor selected was PD0325901. In addition, the detection of the HDAC9 amplification drove the selection of a drug that has been previously shown efficacy of epigenetic therapy in metastatic lung cancer, suberanilohydroxamic acid or SAHA, which is a potent HDAC inhibitor.
After establishing which treatments were to be used in the case study, 15 animals comprising the PDX were divided into three groups. A first group received vehicle only via intraperitoneal injection each day for 18 days. A second group received SAHA (100 mg/kg) via oral gavage each day for 18 days and a third group received PD0325901 (20 mg/kg) each day for 18 days via oral gavage. Both during and after treatment, tumor volume was measured in each of the mice and the data is plotted in FIG. 7.
Additional experiments were conducted to investigate the potential impact of combination drugs. Referring now to FIG. 8, the drug treatment experiments described above were repeated with an additional pharmaceutical composition, 5-Azacytidine, which is a nucleoside analog that is an FDA-approved treatment for some forms of cancer. […]

[2] = have been shown; cited from earlier work
ERK phosphorylation = experiment: Immunohistochemistry with anti-phosphorylated ERK antibody (FIG. 14); type: in vivo
Description: FIG. 14 is an immunohistochemistry study of tissue from the patient whose samples were detailed in FIGS. 12 and 13. In this study, an anti-phosphorylated ERK antibody was used to assess ERK phosphorylation in the various treatment conditions.
Sections were mounted onto a glass slide and stained with reagents designed to detect proteins of interest by IHC staining. This allows samples of many or all of the tumor specimens to be stained at one time. IHC staining was performed to determine the presence or absence of specific proteins and was used to validate potential targets discovered by genome-wide experiments (as previously described).
(§2) Referring next to FIGS. 12 and 13, samples from a different patient (i.e., a patient with lung cancer that metastasized to portions the central nervous system) that were analyzed using some aspects of the instant invention. […] As a result of this analysis, it was determined that a MEK inhibitor (e.g., PD0325901) should be employed in the patient-derived xenograft context to assess potential for therapeutic efficacy.

[3] = tested on: patient-derived xenograft of lung cancer metastasized to the central nervous system (KRAS mutation); experiment: Tumor weight of patient-derived xenograft of lung cancer CNS metastasis (FIG. 13); type: in vivo, mice; conditions: treatment conditions with MEK inhibitor
From the text: as §1, with “Portions of each excised flank tumor were archived as frozen tissue and as paraffin-embedded tissue following formalin fixation. The remainder of each tumor was dispersed in DMEM, processed as described above and passed by injection into the flank of another NSG mouse.” left out
as §2

O=C(CCCCCCC(=O)Nc1ccccc1)NO [SAHA, suberanilohydroxamic acid]
tumor growth (tumor volume) during treatment ([1]; FIG. 7): reduced tumor growth | blood-brain barrier penetration [2]: blood-brain barrier penetrant

Nc1ncn([C@@H]2O[C@H](CO)[C@@H](O)[C@H]2O)c(=O)n1 [5-Azacytidine]
tumor volume growth, single agent and combinations with 5-Azacytidine ([1]; 5-Azacytidine 2.0 mg/kg intraperitoneal, combinations compared to SAHA and PD0325901 alone, FIG. 8): did not serve as an efficacious treatment

O=C(NOC[C@H](O)CO)c1ccc(F)c(F)c1Nc1ccc(I)cc1F [PD0325901]
tumor growth (tumor volume) during treatment ([1]; FIG. 7): little to no tumor growth | rate of tumor growth after treatment stopped ([1]; after day 18, FIG. 7): reduced compared to animals in the SAHA and control groups | ERK phosphorylation 14 days after treatment (ERK phosphorylation; 14 days after treatment): returned to vehicle-treatment levels | ERK phosphorylation in the metastasis cells during treatment (ERK phosphorylation; compared to vehicle alone): reduced ERK phosphorylation | blood-brain barrier penetration [2]: blood-brain barrier penetrant | gains in tumor weight [3]: most reduced gains in tumor weight
